Source: patent publication US11795460B2, “Compositions and methods for TTR gene editing and treating ATTR amyloidosis” (Intellia Therapeutics, Inc., priority 2017, dated 2023)

Assays:
TTR [1] = assay: TTR editing in HEK293_Cas9 cells transfected with dgRNAs (Table 4); type: cell-based, human; settings: HEK293_Cas9 cells (constitutively express Spy Cas9) transfected with dgRNAs
Description: HEK293 Cas9 cell line. The human embryonic kidney adenocarcinoma cell line HEK293 constitutively expressing Spy Cas9 (“HEK293_Cas9”) was cultured in DMEM media supplemented with 10% fetal bovine serum and 500 μg/ml G418. Cells were plated at a density of 10,000 cells/well in a 96-well plate 24 hours prior to transfection. Cells were transfected with Lipofectamine RNAiMAX (ThermoFisher, Cat. 13778150) per the manufacturer's protocol. Cells were transfected with a lipoplex containing individual crRNA (25 nM), trRNA (25 nM), Lipofectamine RNAiMAX (0.3 μL/well) and OptiMem.
(§1) Transfected cells were harvested post-transfection at 24, 48, or 72 hours. The genomic DNA was extracted from each well of a 96-well plate using 50 μL/well BuccalAmp DNA Extraction solution (Epicentre, Cat. QE09050) per manufacturer's protocol. All DNA samples were subjected to PCR and subsequent NGS analyses, as described herein.
(§2) To quantitatively determine the efficiency of editing at the target location in the genome, sequencing was utilized to identify the presence of insertions and deletions introduced by gene editing.
(§3) Primers were designed around the target site within the gene of interest (e.g. TTR), and the genomic area of interest was amplified.
(§4) Additional PCR was performed per the manufacturer's protocols (Illumina) to add chemistry for sequencing. The amplicons were sequenced on an Illumina MiSeq instrument. The reads were aligned to a reference genome (e.g., the human reference genome (hg38), the cynomologus reference genome (mf5), the rat reference genome (rn6), or the mouse reference genome (mm10)) after eliminating those having low quality scores. The resulting files containing the reads were mapped to the reference genome (BAM files), where reads that overlapped the target region of interest were selected and the number of wild type reads versus the number of reads which contain an insertion, substitution, or deletion was calculated.
(§5) The editing percentage (e.g., the “editing efficiency” or “percent editing” or “indel frequency”) is defined as the total number of sequence reads with insertions/deletions (“indels”) or substitutions over the total number of sequence reads, including wild type.
(§6) Guides in dgRNA format targeting human TTR and the cynomologus matched sequences were delivered to HEK293 Cas9, HUH7 and HepG2 cell lines, as well as primary human hepatocytes and primary cynomolgus monkey hepatocytes as described in Example 1. Percent editing was determined for crRNAs comprising each guide sequence across each cell type and the guide sequences were then rank ordered based on highest % edit. The screening data for the guide sequences in Table 1 in all five cell lines are listed below (Table 4 through 11).

TTR [2] = assay: TTR editing in HUH7 cells transfected with Spy Cas9 mRNA and dgRNAs (Table 5); type: cell-based, human; settings: HUH7 cells co-transfected with Spy Cas9 mRNA (SEQ ID NO:2) and dgRNAs
Description: HUH7 cell line. The human hepatocellular carcinoma cell line HUH7 (Japanese Collection of Research Bioresources Cell Bank, Cat. JCRB0403) was cultured in DMEM media supplemented with 10% fetal bovine serum. Cells were plated on at a density of 15,000 cells/well in a 96-well plate 20 hours prior to transfection. Cells were transfected with Lipofectamine MessengerMAX (ThermoFisher, Cat. LMRNA003) per the manufacturer's protocol. Cells were sequentially transfected with a lipoplex containing Spy Cas9 mRNA (100 ng), MessengerMAX (0.3 μL/well) and OptiMem followed by a separate lipoplex containing individual crRNA (25 nM), tracer RNA (25 nM), MessengerMAX (0.3 μL/well) and OptiMem.
as §1, §2, §3, §4, §5, §6

TTR [3] = assay: TTR editing in HepG2 cells transfected with Spy Cas9 mRNA and dgRNAs (Table 6); type: cell-based, human; settings: HepG2 cells co-transfected with Spy Cas9 mRNA (SEQ ID NO:2) and dgRNAs
Description: HepG2 cell line. The human hepatocellular carcinoma cell line HepG2 (American Type Culture Collection, Cat. HB-8065) was cultured in DMEM media supplemented with 10% fetal bovine serum. Cells were counted and plated on Bio-coat collagen I coated 96-well plates (ThermoFisher, Cat. 877272) at a density of 10,000 cells/well in a 96-well plate 24 hours prior to transfection. Cells were transfected with Lipofectamine 2000 (ThermoFisher, Cat. 11668019) per the manufacturer's protocol. Cells were sequentially transfected with lipoplex containing Spy Cas9 mRNA (100 ng), Lipofectamine 2000 (0.2 μL/well) and OptiMem followed by a separate lipoplex containing individual crRNA (25 nM), tracer RNA (25 nM), Lipofectamine 2000 (0.2 μL/well) and OptiMem.
as §1, §2, §3, §4, §5, §6

TTR [4] = assay: TTR editing in primary human hepatocytes electroporated with Spy Cas9 protein loaded with dgRNAs (Table 7); type: cell-based; settings: dgRNA electroporated with Spy Cas9 protein (RNP)
Description: (§7) Primary liver hepatocytes. Primary human liver hepatocytes (PHH) and primary cynomolgus liver hepatocytes (PCH) (Gibco) were cultured per the manufacturer's protocol (Invitrogen, protocol 11.28.2012). In brief, the cells were thawed and resuspended in hepatocyte thawing medium with supplements (Gibco, Cat. CM7000) followed by centrifugation at 100 g for 10 minutes for human and 80 g for 4 minutes for cyno. The supernatant was discarded and the pelleted cells resuspended in hepatocyte plating medium plus supplement pack (Invitrogen, Cat. A1217601 and CM3000). Cells were counted and plated on Bio-coat collagen I coated 96-well plates (ThermoFisher, Cat. 877272) at a density of 33,000 cells/well for human or 60,000 cells/well for cyno (or 65,000 cells/well when assaying effects on TTR protein, described further below). Plated cells were allowed to settle and adhere for 6 or 24 hours in a tissue culture incubator at 37° C. and 5% CO2 atmosphere. After incubation cells were checked for monolayer formation and media was replaced with hepatocyte culture medium with serum-free supplement pack (Invitrogen, Cat. A1217601 and CM4000).
(§8) […] formation was performed prior to electroporation or transfection of Spy Cas9 protein loaded with guide RNAs (RNPs) onto cells. For dual guide (dgRNAs), individual crRNA and trRNA was pre-annealed by mixing equivalent amounts of reagent and incubating at 95° C. for 2 min and cooling to room temperature. Single guide (sgRNAs) were boiled at 95° C. for 2 min and cooling to room temperature. The boiled dgRNA or sgRNA was incubated with Spy Cas9 protein in Optimem for 10 minutes at room temperature to form a ribonucleoprotein (RNP) complex.
For RNP electroporation into primary human and cyno hepatocytes, the cells are thawed and resuspended in Lonza electroporation Primary Cell P3 buffer at a concentration of 2500 cells per μL for human hepatocytes and 3500 cells per μL for cyno hepatocytes. A volume of 20 μL of resuspended cells and 5 μL of RNP are mixed together per guide. 20 μL of the mixture is placed into a Lonza electroporation plate. The cells were electroporated using the Lonza nucleofector with the preset protocol EX-147. Post electroporation, the cells are transferred into a Biocoat plate containing pre-warmed maintenance media and placed in a tissue culture incubator at 37° C. and 5% CO2.
as §1, §2, §3, §4
The editing percentage (e.g., the “editing efficiency” or “percent editing” or “indel frequency”) is defined as the total number of sequence reads with insertions/deletions (“indels”) or substitutions over the total number of sequence reads, including wild type. […]

TTR [5] = assay: TTR editing in primary human hepatocytes transfected with Spy Cas9 protein (RNP) loaded with dgRNAs (Table 8); type: cell-based; settings: dgRNA transfected with Spy Cas9 protein (RNP)
Description: as §7, §8
For RNP lipoplex transfections, cells were transfected with Lipofectamine RNAiMAX (ThermoFisher, Cat. 13778150) per the manufacturer's protocol. Cells were transfected with an RNP containing Spy Cas9 (10 nM), individual guide (10 nM), tracer RNA (10 nM), Lipofectamine RNAiMAX (1.0 μL/well) and OptiMem. RNP formation was performed as described above.
as §1, §2, §3, §4, §5
Guides in dgRNA format targeting human TTR and the cynomologus matched sequences were delivered to HEK293 Cas9, HUH7 and HepG2 cell lines, as well as primary human hepatocytes and primary cynomolgus monkey hepatocytes as described in Example 1. […]

TTR [6] = assay: TTR editing in primary human hepatocytes transfected with Spy Cas9 mRNA and dgRNAs (Table 9); type: cell-based; settings: dgRNA co-transfected with Spy Cas9 mRNA (SEQ ID NO:2)
Description: as §7
Lipofectamine RNAiMax (ThermoFisher, Cat. 13778150) based transfections were conducted as per the manufacturer's protocol. Cells were sequentially transfected with a lipoplex containing Spy Cas9 mRNA (100 ng), Lipofectamine RNAiMax (0.4 μL/well) and OptiMem followed by a separate lipoplex containing crRNA (25 nM) and tracer RNA (25 nM) or sgRNA (25 nM), Lipofectamine RNAiMax (0.4 μL/well) and OptiMem.
as §1, §2, §3, §4, §5, §6

AAUGGUGUAGCGGCGGGGGC (tested as dual guide RNA, chemistry not given here) [CR003375]
Avg % Deletion (TTR [1]): 10.85%
Avg % Edit (TTR [1]): 11.63%
Avg % Insert (TTR [1]): 0.78%
Avg % Deletion (TTR [2]): 2.25%
Avg % Edit (TTR [2]): 2.38%
Avg % Insert (TTR [2]): 0.26%
Avg % Deletion (TTR [3]): 0.10%
Avg % Edit (TTR [3]): 2.06%
Avg % Insert (TTR [3]): 1.96%
Avg % Deletion (TTR [4]): 0.07%
Avg % Edit (TTR [4]): 1.33%
Avg % Insert (TTR [4]): 1.27%
Avg % Deletion (TTR [5]): 0.11%
Avg % Edit (TTR [5]): 5.04%
Avg % Insert (TTR [5]): 4.93%
Avg % Deletion (TTR [6]): 0.03%
Avg % Edit (TTR [6]): 1.27%
Avg % Insert (TTR [6]): 1.23%

CGGCAAUGGUGUAGCGGCGG (tested as dual guide RNA, chemistry not given here) [CR003376]
Avg % Deletion (TTR [1]): 26.81%
Avg % Edit (TTR [1]): 28.16%
Avg % Insert (TTR [1]): 1.35%
Avg % Deletion (TTR [2]): 18.55%
Avg % Edit (TTR [2]): 19.42%
Avg % Insert (TTR [2]): 1.37%
Avg % Deletion (TTR [3]): 0.24%
Avg % Edit (TTR [3]): 14.41%
Avg % Insert (TTR [3]): 14.16%
Avg % Deletion (TTR [4]): 0.03%
Avg % Edit (TTR [4]): 1.90%
Avg % Insert (TTR [4]): 1.87%
Avg % Deletion (TTR [5]): 0.14%
Avg % Edit (TTR [5]): 5.00%
Avg % Insert (TTR [5]): 4.86%
Avg % Deletion (TTR [6]): 0.13%
Avg % Edit (TTR [6]): 2.83%
Avg % Insert (TTR [6]): 2.73%

GUAUUCACAGCCAACGACUC (tested as dual guide RNA, chemistry not given here) [CR003373]
Avg % Deletion (TTR [1]): 12.25%
Avg % Edit (TTR [1]): 13.55%
Avg % Insert (TTR [1]): 1.31%
Avg % Deletion (TTR [2]): 25.12%
Avg % Edit (TTR [2]): 27.29%
Avg % Insert (TTR [2]): 3.31%
Avg % Deletion (TTR [3]): 1.77%
Avg % Edit (TTR [3]): 17.69%
Avg % Insert (TTR [3]): 15.92%
Avg % Deletion (TTR [4]): 0.07%
Avg % Edit (TTR [4]): 0.87%
Avg % Insert (TTR [4]): 0.83%
Avg % Deletion (TTR [5]): 0.19%
Avg % Edit (TTR [5]): 3.64%
Avg % Insert (TTR [5]): 3.44%
Avg % Deletion (TTR [6]): 0.37%
Avg % Edit (TTR [6]): 1.40%
Avg % Insert (TTR [6]): 1.00%

GGCGGCAAUGGUGUAGCGGC (tested as dual guide RNA, chemistry not given here) [CR003378]
Avg % Deletion (TTR [1]): 16.48%
Avg % Edit (TTR [1]): 20.97%
Avg % Insert (TTR [1]): 4.49%
Avg % Deletion (TTR [2]): 32.27%
Avg % Edit (TTR [2]): 40.73%
Avg % Insert (TTR [2]): 9.73%
Avg % Deletion (TTR [3]): 1.34%
Avg % Edit (TTR [3]): 8.16%
Avg % Insert (TTR [3]): 6.82%
Avg % Deletion (TTR [4]): 0.73%
Avg % Edit (TTR [4]): 4.60%
Avg % Insert (TTR [4]): 3.87%
Avg % Deletion (TTR [5]): 0.42%
Avg % Edit (TTR [5]): 8.66%
Avg % Insert (TTR [5]): 8.24%
Avg % Deletion (TTR [6]): 1.37%
Avg % Edit (TTR [6]): 9.80%
Avg % Insert (TTR [6]): 8.50%
